Starred links: 1 amine or outer side, 2 acyl side, 3 side chain; linkers in the order of their positions; H or OH if unused. Positions of bridges follow the written chain, without caps; N, C: chain ends. Non-standard residues stand in square brackets, D forms with d. Residues, ends and D or L forms follow the SMILES beside them. No end group written: not given here. *: point of attachment. dProlinol(O-CH2CO) = O=C(COC[C@H]1CCCN1[*:1])[*:2]; N(2-Aminoethyl)Gly = O=C(CN(CCN[*:3])[*:1])[*:2]; Nle = CCCC[C@H](N)C(=O)O; Ms = CS(=O)(=O)*
What was measured:
[1] = test system: peripheral blood mononuclear cells (PBMC); experiment: Cell death in normal peripheral blood mononuclear cells, annexin V positivity and FACS; type: cell-based; settings: 6.25-50 ug/ml, six hours
Method: Peripheral blood mononuclear cells (PBMC) were isolated from a normal donor. Cells were treated with 6.25, 12.5, 25 and 50 ug/ml for six hours and cell death was measured by annexin V positivity and FACS analysis.
(§1) CD34^+ hematopoietic progenitor cells were isolated from peripheral blood and treated for 2 hrs with integrin interaction inhibitors (12.5 and 50 μg/ml) and then plated in a methylcellulose media supplemented with growth factors supporting myeloid and erythroid colonies. Colonies were counted on day 12 post-plating. […] In addition, we evaluated the toxicity of integrin interaction inhibitors in normal peripheral blood mononuclear cells (PBMC).

[2] = test system: H929 myeloma cells; type: cell-based; settings: H929 cells
Method: H929 cells were treated for 24 hours with varying concentrations of peptide. Cell death was measured by Topro-3 staining and FACS analysis. The IC50 values were obtained from linear regression analysis and an average value was obtained from 3 independent experiments.
Table 4 legend: Structure activity relationship in H929 myeloma cells of cyclic INTEGRIN INTERACTION INHIBITORS derivatives. The minimal bioactive core sequence of INTEGRIN INTERACTION INHIBITORS WSVVM (SEQ ID NO:85) was cyclized using 2 novel reduced amide bond beta turn promoters and KLKLK (SEQ ID NO:27) as the non-recognition sequence. H929 cells were treated with varying concentrations of the indicated peptide for 24 h. Cell viability was determined using Topro-3 staining and FACS analysis after drug treatment. IC50 values were generated from linear regressions generated from the dose response curves (n=mean of 3 independent experiments).
Using combinatorial peptide libraries and a functional binding assay, several peptides have been identified that inhibited α2β1 and α6β1 integrin mediated adhesion of prostate cancer cells to fibronectin, laminin and collagen IV.^1 They identified an all D-amino acid containing peptide referred as HYD1 ([…]) (SEQ ID NO:278) that blocks binding of epithelial prostate carcinoma cells to extracellular matrix components.^2,3 Hazlehurst and co-workers have truncated the N- and C-termini and alanine scan studies identified MVISW (SEQ ID NO:279) as the likely core region of linear D-HYD1 required for biological activity. […] The pentapeptide (KLKLK) (SEQ ID NO:27) was selected as the non-recognition strand to improve the solubility. N- to C-terminus cyclization of linear peptides was done to restrict the number of conformations available to the linear peptide which increases the affinity of the cyclized peptide for its target when the constraint stabilizes the bound conformation of the peptide. We synthesized cyclic D-HYD1 using a novel methylsulfonamide aminoethyl glycine linker T1 that connects two anti-parallel strands. […] The inverso- (peptide 2, Table 4) and partially modified retro-inverso (PMRI) (peptide 10) pentapeptide sequences of the recognition strand of cyclic III (Integrin Interaction Inhibitors also known as cyclic L-HYD1) peptide analogs were subsequently investigated for their potential to block beta integrin mediated cell adhesion. The retro-inverso design of biologically active peptides is a well-known strategy to design all D-amino acid peptides from potentially bioactive all L-peptide sequences with increased stability^4-7.
A colony forming assay was used to compare induced cell death in H929 multiple myeloma cells. Cells were treated with integrin interaction inhibitors, shown in FIG. 5 and Table 4, and cell death was measured following 24 hour peptide treatment by TOPRO-3 staining and FACS analysis.

[3] = test system: H929 myeloma cells; experiment: MM SCID-Hu in vivo model, tumor burden by circulating Kappa levels (ELISA); design: species or system mice; settings: 8 mg/kg I.P. daily 14 days, every other day day 14-28; p<0.05 ANOVA vs vehicle
Method: (§2) Briefly, 50,000 H929 myeloma cells were engrafted into the bone implant for 10 days prior to initiation of peptide treatment. Following tumor engraftment mice were randomized (0 time point) and injected with 8 mg/kg c-HYD1 or vehicle control (VC) daily (I.P. injections) for 14 days and every other day from day 14-28 at which time treatment stopped. Tumor burden was measured by circulating Kappa levels by ELISA weekly. N=10 mice for vehicle control (VC) and 9 mice for c-HYD1 treated.
as §1

[4] = Weight and overt toxicity of mice injected with c-HYD1; type: in vivo
Method: as §2
FIG. 42 is a graph showing the effect of cyclized HYD1 (c-HYD1) injection on the weight of mice.

[5] = test system: U266; experiment: Drug combination, cell viability by CT-Blue assay, Chou and Talalay Combination Index; type: cell-based; settings: combination with the named agent

CC[C@@H](C)[C@@H](NC(=O)[C@H](N)CCCCN)C(=O)N[C@H](CCCCN)C(=O)N[C@H](CCSC)C(=O)N[C@@H](C(=O)N[C@@H](C(=O)N[C@H](CO)C(=O)N[C@H](Cc1c[nH]c2ccccc12)C(=O)N[C@H](CCCCN)C(=O)NCC(=O)O)[C@H](C)CC)C(C)C [HYD1]
cell death in normal PBMC [1]: more potent in MM cells (H929) compared to normal hematopoietic cells

CCCC[C@@H]1NC(=O)CN(S(C)(=O)=O)CCNC(=O)[C@H](CCCCN)NC(=O)[C@H](CC(C)C)NC(=O)[C@H](CCCCN)NC(=O)[C@H](CC(C)C)NC(=O)[C@H](CCCCN)NC(=O)COC[C@H]2CCCN2C(=O)[C@H](Cc2c[nH]c3ccccc23)NC(=O)[C@H](C)NC(=O)[C@H](C(C)C)NC(=O)[C@H](C(C)C)NC1=O [c-HYD1] (Ms-[N(2-Aminoethyl)Gly][Nle]VVAW[dProlinol(O-CH2CO)]KLKLK; lactam 1-C)
fold more potent than the parent linear HYD1 peptide [2]: 30 fold | IC50 ([2]; 24 hours, Topro-3 and FACS, read-out: IC50 value in H929 cells): 1.2 µM | tumor growth (circulating Kappa levels) [3]: significantly reduces tumor growth | weight loss and overt signs of toxicity [4]: No weight loss or any overt signs of toxicity were observed

COc1cccc2c1C(=O)c1c(O)c3c(c(O)c1C2=O)C[C@@](O)(C(=O)CO)C[C@@H]3O[C@H]1C[C@H](N)[C@H](O)[C@H](C)O1 [doxorubicin]
synergy with integrin interaction inhibitors, in words [5]: strong synergism

NorLeuVVAW: cyclic compound combining both modifications, recognition strand NorLeuVVAW (SEQ ID NO:41) ([Nle]VVAW; also: cyclic, closure not given here)
fold more potent than the parent linear HYD1 peptide [2]: 30 fold

NorLeuVVSW: cyclic compound with recognition strand NorLeuVVSW (SEQ ID NO:39), methionine replaced by nor-Leucine ([Nle]VVSW; also: cyclic compound, closure not given here)
fold more potent than the parent linear HYD1 peptide [2]: 15 fold

arsenic trioxide
synergy with integrin interaction inhibitors, in words [5]: strong synergism

Reference: patent US10059740B2, “Integrin interaction inhibitors for the treatment of cancer” (H. LEE MOFFITT CANCER CENTER AND RESEARCH INSTITUTE, INC., priority 2010, dated 2018)
